Assay [1] concerns the target T1, 5-HT3ABr2 receptors (Homo sapiens, UniProt P46098).
T1 construct: expressed in transfected cells; host or cells: Xenopus laevis oocytes (cRNA from pGEMHE) or HEK293 cells (pcDNA3.1), A:Br2 ratio 1:3 unless otherwise stated
T1 sequence (P46098 24-478): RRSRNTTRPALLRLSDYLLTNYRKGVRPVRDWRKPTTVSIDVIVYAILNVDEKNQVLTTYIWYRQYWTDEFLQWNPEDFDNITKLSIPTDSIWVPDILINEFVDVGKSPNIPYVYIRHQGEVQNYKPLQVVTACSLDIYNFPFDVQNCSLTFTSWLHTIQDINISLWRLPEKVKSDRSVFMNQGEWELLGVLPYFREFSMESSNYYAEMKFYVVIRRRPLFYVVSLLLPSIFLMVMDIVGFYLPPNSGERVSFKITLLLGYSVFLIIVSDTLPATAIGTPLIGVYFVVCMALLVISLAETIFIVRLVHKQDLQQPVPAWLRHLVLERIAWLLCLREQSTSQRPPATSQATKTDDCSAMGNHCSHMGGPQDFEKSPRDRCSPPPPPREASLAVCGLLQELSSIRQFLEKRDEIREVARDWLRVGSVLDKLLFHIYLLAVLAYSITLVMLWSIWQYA
Briefly: Fluorescent membrane potential dye (FlexStation) in transfected HEK293 cells. The class given is cell-based. The note with it: Hill slope, 5-HT3ABr2 receptors in HEK293 cells, mean ± SEM. How it is done: (§1) Human embryonic kidney (HEK) 293 cells were maintained on 90 mm tissue culture plates at 37 °C and 7% CO2 in a humidified atmosphere. They were cultured in DMEM:F12 with GlutaMAX I media (Dulbecco’s modified Eagle’s Medium/Nutrient Mix F12 (1:1), Invitrogen, Paisley, U.K.) containing 10% fetal calf serum. Cells in 90 mm dishes were transfected using polyethylenimine (PEI). Then 30 μL of PEI (1 mg/mL), 4 μL of cDNA (1 mg/mL) and 1 mL of DMEM were incubated for 10 min at room temperature, added dropwise to a 80–90% confluent plate, and incubated for 2–3 days. For Flexstation studies, cells were transferred to 96-well plates and allowed to adhere overnight before use.
(§2) cDNA was cloned into pGEMHE for oocyte expression, and pcDNA3.1 (Invitrogen, Paisley, U.K.) for expression in HEK 293 cells. Mutagenesis (Figure 1) was performed using QuikChange (Agilent Technologies Inc., Santa Clara, CA). cRNA was in vitro transcribed from linearized pGEMHE cDNA template using the mMessage mMachine T7 Transcription kit (Ambion, Austin, TX). 5-HT3A was linearized with SphI and 5-HT3B cDNA with NheI. Stage V and VI oocytes were injected with 50 nL of ∼400 ng μL^–1 cRNA, and currents were recorded 1–4 days postinjection. […] This was as previously described.[22] […] The cells were incubated at 37 °C for 45 min, and then fluorescence was measured in a FlexStation (Molecular Devices) at 2 s intervals for 200 s. […] Analysis and curve fitting was performed using Prism (GraphPad Software, San Diego, CA, www.graphpad.com).

The target of assay [2] is T2, 5-HT3A receptors (Homo sapiens, UniProt P46098).
T2 construct: expressed in transfected cells; host or cells: Xenopus laevis oocytes (cRNA from pGEMHE) or HEK293 cells (pcDNA3.1)
T2 sequence (P46098 24-478): T1 sequence (P46098 24-478)
Described as above. The class given is cell-based. The note with it: Hill slope, 5-HT3A receptors in HEK293 cells, mean ± SEM. The protocol: as §1, §2

In assay [3] the target is T3, 5-HT3AB receptors (Homo sapiens, UniProt O95264+P46098).
T3 construct: expressed in transfected cells; host or cells: Xenopus laevis oocytes (cRNA from pGEMHE) or HEK293 cells (pcDNA3.1), A:B ratio 1:3
T3 sequence (P46098 24-478): T1 sequence (P46098 24-478)
T3 sequence (O95264 22-441): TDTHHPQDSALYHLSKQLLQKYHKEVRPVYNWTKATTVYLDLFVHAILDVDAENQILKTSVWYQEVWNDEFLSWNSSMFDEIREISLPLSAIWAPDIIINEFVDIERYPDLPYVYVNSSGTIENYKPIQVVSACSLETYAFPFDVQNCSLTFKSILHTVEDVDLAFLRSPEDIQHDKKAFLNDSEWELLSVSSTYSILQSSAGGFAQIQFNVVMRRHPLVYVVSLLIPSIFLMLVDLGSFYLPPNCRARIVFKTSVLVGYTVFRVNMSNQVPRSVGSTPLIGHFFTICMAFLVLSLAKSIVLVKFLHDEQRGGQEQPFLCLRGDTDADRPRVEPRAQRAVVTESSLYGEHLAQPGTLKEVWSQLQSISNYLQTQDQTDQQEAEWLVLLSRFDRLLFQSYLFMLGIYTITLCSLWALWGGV
Described as above. Type of assay: cell-based. The note with it: Hill slope, 5-HT3AB receptors in HEK293 cells, mean ± SEM. The protocol:
as §1, §2

Assay [4] addresses T4, 5-HT3ABr1 receptors (Homo sapiens, UniProt O95264+P46098).
T4 sequence (P46098 24-478): T1 sequence (P46098 24-478)
T4 sequence (O95264 1-430 isoform O95264-2): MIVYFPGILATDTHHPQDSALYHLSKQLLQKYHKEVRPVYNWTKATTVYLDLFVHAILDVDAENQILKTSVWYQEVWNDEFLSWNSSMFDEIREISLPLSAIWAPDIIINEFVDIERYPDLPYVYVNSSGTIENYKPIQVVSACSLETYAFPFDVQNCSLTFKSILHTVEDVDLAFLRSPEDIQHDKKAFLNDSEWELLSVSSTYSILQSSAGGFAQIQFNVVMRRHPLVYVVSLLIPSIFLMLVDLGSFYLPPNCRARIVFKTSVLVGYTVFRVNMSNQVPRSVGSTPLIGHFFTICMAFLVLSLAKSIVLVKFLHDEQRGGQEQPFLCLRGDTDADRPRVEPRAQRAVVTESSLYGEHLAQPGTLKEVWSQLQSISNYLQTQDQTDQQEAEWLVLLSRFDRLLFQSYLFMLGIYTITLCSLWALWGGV
Described as above. The class given is cell-based. The note with it: Hill slope, 5-HT3ABr1 receptors in HEK293 cells, mean ± SEM. The protocol:
as §1, §2

The target in assay [5] is T2, 5-HT3A receptors. Briefly: 5-HT-induced macroscopic currents, two-electrode voltage-clamp in Xenopus oocytes. Type of assay: cell-based. The following applies: Hill slope, 5-HT3A receptors in oocytes. The protocol: (§3) Xenopus laevis oocyte-positive females were purchased from NASCO (Fort Atkinson, WI) and maintained according to standard methods. Harvested stage V–VI Xenopus oocytes were washed in four changes of Ca-free ND96 (96 mM NaCl, 2 mM KCl, 1 mM MgCl2, 5 mM HEPES, pH 7.5), defolliculated in 1.5 mg mL^–1 collagenase Type 1A for approximately 2 h, washed again in four changes of ND96, and then stored in ND96 containing 2.5 mM sodium pyruvate, […] gentamycin, and 0.7 mM theophylline.
(§4) cDNA was cloned into pGEMHE for oocyte expression, and pcDNA3.1 (Invitrogen, Paisley, U.K.) for expression in HEK 293 cells. Mutagenesis (Figure 1) was performed using QuikChange (Agilent Technologies Inc., Santa Clara, CA). cRNA was in vitro transcribed from linearized pGEMHE cDNA template using the mMessage mMachine T7 Transcription kit (Ambion, Austin, TX). 5-HT3A was linearized with SphI and 5-HT3B cDNA with NheI. Stage V and VI oocytes were injected with 50 nL of ∼400 ng μL^–1 cRNA, and currents were recorded 1–4 days postinjection. Ratios of 1:3 (5-HT3A:5-HT3B/5-HT3Br1/5-HT3Br2) were used for the expression of heteromeric receptors unless otherwise stated.
(§5) Currents were recorded at a frequency of 5 kHz and filtered at 1 kHz. Microelectrodes were fabricated from borosilicate glass (GC120TF-10, Harvard Apparatus, Edenbridge, Kent, U.K.) using a one stage horizontal pull (P-87, Sutter Instrument Company, Novato, CA) and filled with 3 M KCl. Pipet resistances ranged from 1.0 to 2.0 MΩ. […] Drug application was via a simple gravity fed system calibrated to run at the same rate.

Assay [6] has as its target T3, 5-HT3AB receptors. Described as above. The following applies: Hill slope, 5-HT3AB receptors in oocytes. The class given is cell-based. How it is done: as §3, §4, §5
Assay [7] deals with T4, 5-HT3ABr1 receptors. The assay is described as above. The note with it: Hill slope, 5-HT3ABr1 receptors in oocytes. Type of assay: cell-based. The protocol: as §3, §4, §5
Assay [8] concerns 5-HT3 receptors (5-HT3A, 5-HT3AB, 5-HT3ABr1, 5-HT3ABr2). Briefly: Competition binding against [3H]granisetron at different 5-HT3 receptors expressed in HEK293 cells.
Method: Transfected HEK 293 cells were scraped into 1 mL of ice-cold HEPES buffer (10 mM, pH 7.4) and frozen. […] For competition binding (8 point), reactions were incubated for at least 1 h at 4 °C. Reactions were terminated by vacuum filtration using a Brandel cell harvester onto GF/B filters presoaked in 0.3% polyethylenimine. Radioactivity was determined by scintillation counting using a Beckman BCLS6500 instrument (Fullerton, CA). Individual competition binding experiments were analyzed by iterative curve fitting using Prism.
In assay [9] the target is T1, 5-HT3ABr2 receptors. Briefly: 5-HT-induced macroscopic currents, two-electrode voltage-clamp in Xenopus oocytes. Type of assay: cell-based. How it is done: as §3, §4, §5
On the technique in general: Two-electrode voltage clamp holds a large cell at a set potential and records current.

Assay [10] concerns the target T2, 5-HT3A receptors. The note with it: cited from earlier work.
Where [11] appears, read: competition with 1 nM [3H]granisetron, values shown only in Figure 5.

Read-outs that look alike come from different tables or passages of the source. Marks after values point to notes of the source that are not given here.

Regarding `NCCc1c[nH]c2ccc(O)cc12` [5-HT, 5-hydroxytryptamine], the “nH, parameters from functional data” value in assay [1] is given as 2.9 ± 0.4 ^c; in assay [2] it was 3.6 ± 0.8; in assay [3], 1.3 ± 0.2 ^b; in assay [4], 1.5 ± 0.3 ^b. Also, the nH in [5] was 2.6; in [6] it was 1.0; in assay [7], 1.0.
For `CN1[C@@H]2CC[C@H]1C[C@@H](OC(=O)c1cc(Cl)cc(Cl)c1)C2` [MDL-72222], the “Ki, rank order of potency and comparison between receptor subtypes” value (shortened to “Ki, rank order”) in assay [8] (setting [11]) was “palonosetron > granisetron > MDL-72222 > mCPBG > d-TC”.
Regarding `COc1cc2c3cc1Oc1cc(ccc1O)C[C@@H]1c4c(cc(OC)c(O)c4Oc4ccc(cc4)C[C@@H]3N(C)CC2)CC[N+]1(C)C` [d-TC, d-tubocurarine], the “Ki, rank order” value in [8] is “palonosetron > granisetron > MDL-72222 > mCPBG > d-TC”.
As to `NC(N)=NC(N)=Nc1cccc(Cl)c1` [mCPBG], the “Ki, rank order” value in [8] (setting [11]) is listed as “palonosetron > granisetron > MDL-72222 > mCPBG > d-TC”.
Take `O=C1c2cccc3c2[C@H](CCC3)CN1[C@@H]1CN2CCC1CC2` [palonosetron]: in assay [8] (setting [11]), the “Ki, rank order” value is “palonosetron > granisetron > MDL-72222 > mCPBG > d-TC”.
Turning to `C=C(C)[C@@H]1[C@H]2OC(=O)[C@@H]1[C@]1(O)C[C@H]3O[C@]34C(=O)O[C@H]2[C@]14C` [picrotoxinin], the IC50 in assay [9] is 17 µM; in assay [10], 11 µM.

In general, IC50 refers to the concentration that inhibits the measured activity by half.

The values are drawn from paper PMC4505687, “5-HT3 Receptor Brain-Type B-Subunits are Differentially Expressed in Heterologous Systems” (ACS Chemical Neuroscience, 2015).
